Laboratory results reported in article PMC8943889, “Synthetic studies with the brevicidine and laterocidine lipopeptide antibiotics including analogues with enhanced properties and in vivo efficacy” (Chemical Science, 2022).
Values after ≈ are worked out from the molar mass of the structure shown. Where two headings read alike, the source gives them in different places. Positions of bridges follow the written chain, without caps; N, C: chain ends. Non-standard residues stand in square brackets, D forms with d. Residues, ends and D or L forms follow the SMILES beside them. *: point of attachment. Octanoyl(7-Me) = CC(C)CCCCCC(=O)*; dOrn = NCCC[C@@H](N)C(=O)O; Orn = NCCC[C@H](N)C(=O)O

Experiments:
Type in all cases: cell-based
P. aeruginosa M-120 = system: P. aeruginosa M-120
Experimental: (§1) Minimum inhibitory concentrations (MICs) were determined by broth microdilution according to CLSI guidelines in triplicate. Blood agar plates were inoculated with glycerol stocks of E. coli ATCC 25922, E. coli MCR-1 (clinical isolate from Utrecht Medical Centre, NL), E. coli EQAS MCR-2 (clinical isolate from Wageningen University and Research, NL), K. pneumoniae ATCC 11228, K. pneumoniae ATCC 13883, K. pneumonia 2048 (clnical isolate from Vrije Universiteit Amsterdam Medical Centre, NL), K. pneumonia JS-123 (clinical isolate from Utrecht Medical […]
(§2) (clinical isolate from Rijksinstituut voor Volksgezondheid en Milieu, NL), A. baumannii MDR (clinical isolate from Vrije Universiteit Amsterdam Medical Centre, NL), P. aeruginosa ATCC 27853, P. aeruginosa PAO1, P. aeruginosa NRZ-03961 (Reference strain from Das Nationale Referenzzentrum für gramnegative Krankenhauserreger, DE), P. aeruginosa M-120 (clinical isolate from Leiden University Medical Centre, NL) and S. aureus USA300 (clinical isolate from Texas Children's Hospital, USA). E. coli 25922 MCR1 was grown on LB agar supplemented with kanamycin. The inoculated agar plates were then incubated for 16 h at 37°C . Individually grown colonies were subsequently used to inoculate 3 mL aliquots of TSB that were then incubated at 37°C with shaking at 220 rpm. In parallel, the lipopeptide antibiotics to be assessed were serially diluted with Mueller-Hinton broth (MHB) in polypropylene 96-well plates (50 µL in each well).
(§3) Once the OD600 of the bacterial suspensions reached 0.5, the bacteria were diluted with MHB (final concentration 2 × 10^5 CFU mL−1) and added to the microplates containing the test compounds (50 µL to each well, final volume: 100 µL). The well-plates were sealed with an adhesive membrane and after 16 h of incubation at 37°C with shaking at 220 rpm the wells were visually inspected for bacterial growth. MIC values reported are based on three technical replicates and defined as the lowest concentration of the compound that prevented visible growth of bacteria. […]

S. aureus USA300 = system: S. aureus USA300
Experimental: as §1, §2, §3

P. aeruginosa ATCC 27853 = system: P. aeruginosa ATCC 27853
Experimental: as §1, §2, §3

E. coli EQAS MCR-2 = conditions: Ec EQAS MCR-2; broth microdilution (CLSI), MHB, 16 h 37 °C, three technical replicates
Experimental: as §1, §2, §3

E. coli ATCC 25922 = system: E. coli ATCC 25922
Experimental: as §1, §2, §3

K. pneumoniae ATCC 11228 = system: K. pneumoniae ATCC 11228
Experimental: as §1, §2, §3

E. coli ATCC 25922 MCR-1 = conditions: Ec ATCC 25922 MCR-1; broth microdilution (CLSI), MHB, 16 h 37 °C, three technical replicates
Experimental: as §1, §2, §3

[1] = system: E. coli MCR-1 (clinical isolate); conditions: Ec MCR-1; broth microdilution (CLSI), MHB, 16 h 37 °C, three technical replicates
Experimental: as §1, §2, §3

K. pneumoniae JS-123 = system: K. pneumoniae JS-123
Experimental: as §1, §2, §3

A. baumannii ATCC 17961 = system: A. baumannii ATCC 17961
Experimental: as §1, §2, §3

A. baumannii MDR = conditions: Ab MDR; broth microdilution (CLSI), MHB, 16 h 37 °C, three technical replicates
Experimental: as §1, §2, §3

A. baumannii ATCC 17978 = system: A. baumannii ATCC 17978
Experimental: as §1, §2, §3

A. baumannii 2018-006 = system: A. baumannii 2018-006
Experimental: as §1, §2, §3

K. pneumoniae 2048 = system: K. pneumoniae 2048
Experimental: as §1, §2, §3

P. aeruginosa NRZ-03961 = system: P. aeruginosa NRZ-03961
Experimental: as §1, §2, §3

P. aeruginosa PAO1 = system: P. aeruginosa PAO1
Experimental: as §1, §2, §3

K. pneumoniae ATCC 13883 = system: K. pneumoniae ATCC 13883
Experimental: as §1, §2, §3

Row | Compound | MIC (P. aeruginosa M-120; M-120, 16 h) [µg/mL] | MIC (S. aureus USA300; USA300, 16 h) [µg/mL] | MIC (P. aeruginosa ATCC 27853; ATCC 27853, 16 h) [µg/mL] | MIC (E. coli EQAS MCR-2) [µg/mL] | MIC (E. coli ATCC 25922; ATCC 25922, 16 h) [µg/mL] | MIC (K. pneumoniae ATCC 11228; ATCC 11228, 16 h) [µg/mL] | MIC (E. coli ATCC 25922 MCR-1) [µg/mL] | MIC [1] [µg/mL] | MIC (K. pneumoniae JS-123; JS-123, 16 h) [µg/mL] | MIC (A. baumannii ATCC 17961; ATCC 17961, 16 h) [µg/mL] | MIC (A. baumannii MDR) [µg/mL] | MIC (A. baumannii ATCC 17978; ATCC 17978, 16 h) [µg/mL] | MIC (A. baumannii 2018-006; 2018-006, 16 h) [µg/mL] | MIC (K. pneumoniae 2048; 2048, 16 h) [µg/mL] | MIC (P. aeruginosa NRZ-03961; NRZ-03961, 16 h) [µg/mL] | MIC (P. aeruginosa PAO1; PAO1, 16 h) [µg/mL] | MIC (K. pneumoniae ATCC 13883; ATCC 13883, 16 h) [µg/mL] | also measured
1 | CC[C@H](C)[C@@H]1NC(=O)[C@@H](NC(=O)[C@H](Cc2c[nH]c3ccccc23)NC(=O)[C@@H](CCCN)NC(=O)CNC(=O)[C@H](CCCN)NC(=O)[C@@H](CCCN)NC(=O)[C@@H](Cc2c[nH]c3ccccc23)NC(=O)[C@@H](Cc2ccc(O)cc2)NC(=O)[C@@H](CO)NC(=O)CCCCCC(C)C)[C@@H](C)NC(=O)CNC(=O)CNC(=O)[C@H](CC(N)=O)NC1=O [MeDap9-Lat (8), MeDap9-laterocidine] | 1 (≈ 0.623 µM) | 32 (≈ 20 µM) | 0.5 (≈ 0.312 µM) | 0.5 (≈ 0.312 µM) | 1 (≈ 0.623 µM) | 1 to 2 | 1 (≈ 0.623 µM) | 0.5 (≈ 0.312 µM) | 0.5 (≈ 0.312 µM) | 2 (≈ 1.25 µM) | 4 (≈ 2.49 µM) | 2 (≈ 1.25 µM) | 4 (≈ 2.49 µM) | 2 (≈ 1.25 µM) | 2 (≈ 1.25 µM) | 2 (≈ 1.25 µM) | 1 to 2 | –
2 | CC[C@H](C)[C@@H]1NC(=O)[C@@H](NC(=O)[C@H](Cc2c[nH]c3ccccc23)NC(=O)[C@@H](CCCN)NC(=O)CNC(=O)[C@H](CCCN)NC(=O)[C@@H](CCCN)NC(=O)[C@@H](Cc2c[nH]c3ccccc23)NC(=O)[C@@H](Cc2ccc(O)cc2)NC(=O)[C@@H](CO)NC(=O)CCCCCC(C)C)COC(=O)CNC(=O)CNC(=O)[C@H](CC(N)=O)NC1=O [Ser9-Lat (4), Ser9-Laterocidine] ({Octanoyl(7-Me)}-[dS][dY][dW][dOrn][Orn]G[dOrn]WSINGG; ester 9-C) | 1 (≈ 0.629 µM) | >64 | 0.5 to 1 | – | 0.5 (≈ 0.314 µM) | 1 to 2 | – | – | 0.5 (≈ 0.314 µM) | 4 (≈ 2.51 µM) | – | 2 (≈ 1.26 µM) | 4 (≈ 2.51 µM) | 2 (≈ 1.26 µM) | 1 to 2 | 2 (≈ 1.26 µM) | 1 to 2 | –
3 | colistin [reference compound] | – | – | – | 4 | – | – | – | 2 to 4 | – | – | <0.25 | – | – | – | – | – | – | MIC (P. aeruginosa M-120; Pa M-120, broth microdilution (CLSI), MHB, 16 h 37 °C, three technical replicates): <0.25 µg/mL; MIC (S. aureus USA300; Sa USA300, broth microdilution (CLSI), MHB, 16 h 37 °C, three technical replicates): >64 µg/mL; MIC (P. aeruginosa ATCC 27853; Pa ATCC 27853, broth microdilution (CLSI), MHB, 16 h 37 °C, three technical replicates): <0.25 µg/mL; MIC (E. coli ATCC 25922; Ec ATCC 25922, broth microdilution (CLSI), MHB, 2 × 10^5 CFU/mL, 16 h 37 °C, visual read-out, three technical replicates): 0.25 to 0.5 µg/mL; MIC (K. pneumoniae ATCC 11228; Kp ATCC 11228, broth microdilution (CLSI), MHB, 16 h 37 °C, three technical replicates): <0.25 µg/mL; MIC (K. pneumoniae JS-123; Kp JS-123, broth microdilution (CLSI), MHB, 16 h 37 °C, three technical replicates): <0.25 µg/mL; MIC (A. baumannii ATCC 17961; Ab ATCC 17961, broth microdilution (CLSI), MHB, 16 h 37 °C, three technical replicates): <0.25 µg/mL; MIC (A. baumannii ATCC 17978; Ab ATCC 17978, broth microdilution (CLSI), MHB, 16 h 37 °C, three technical replicates): <0.25 µg/mL; MIC (A. baumannii 2018-006; Ab 2018-006, broth microdilution (CLSI), MHB, 16 h 37 °C, three technical replicates): <0.25 µg/mL; MIC (K. pneumoniae 2048; Kp 2048, broth microdilution (CLSI), MHB, 16 h 37 °C, three technical replicates): 0.5 to 1 µg/mL; MIC (P. aeruginosa NRZ-03961; Pa NRZ-03961, broth microdilution (CLSI), MHB, 16 h 37 °C, three technical replicates): 0.25 to 0.5 µg/mL; MIC (P. aeruginosa PAO1; Pa PAO1, broth microdilution (CLSI), MHB, 16 h 37 °C, three technical replicates): 0.25 to 0.5 µg/mL; MIC (K. pneumoniae ATCC 13883; Kp ATCC 13883, broth microdilution (CLSI), MHB, 16 h 37 °C, three technical replicates): 0.25 µg/mL
4 | CCC(C)CCC(=O)N[C@H](CC(N)=O)C(=O)N[C@H](Cc1ccc(O)cc1)C(=O)N[C@H](Cc1c[nH]c2ccccc12)C(=O)N[C@H](CCCN)C(=O)N[C@@H](CCCN)C(=O)NCC(=O)N[C@H](CCCN)C(=O)N[C@@H](Cc1c[nH]c2ccccc12)C(=O)N[C@@H]1C(=O)N[C@@H]([C@@H](C)CC)C(=O)NCC(=O)N[C@@H](CO)C(=O)O[C@@H]1C (some centres unmarked) [Brev (1), brevicidine] | 2 to 4 | 64 (≈ 42.1 µM) | ≤0.5 | 2 (≈ 1.32 µM) | 1 to 2 | 1 to 2 | 2 (≈ 1.32 µM) | – | 1 (≈ 0.658 µM) | 2 to 4 | 4 (≈ 2.63 µM) | 4 (≈ 2.63 µM) | 4 (≈ 2.63 µM) | 1 to 2 | 2 (≈ 1.32 µM) | 2 (≈ 1.32 µM) | 1 (≈ 0.658 µM) | –
5 | CCC(C)CCC(=O)N[C@H](CC(N)=O)C(=O)N[C@H](Cc1ccc(O)cc1)C(=O)N[C@H](Cc1c[nH]c2ccccc12)C(=O)N[C@H](CCCN)C(=O)N[C@@H](CCCN)C(=O)NCC(=O)N[C@H](CCCN)C(=O)N[C@@H](Cc1c[nH]c2ccccc12)C(=O)N[C@@H]1C(=O)N[C@@H]([C@@H](C)CC)C(=O)NCC(=O)N[C@@H](CO)C(=O)N[C@@H]1C (some centres unmarked) [MeDap9-Brev (7)] | 4 (≈ 2.63 µM) | >64 | 2 to 4 | – | 16 (≈ 10.5 µM) | 8 (≈ 5.27 µM) | 8 (≈ 5.27 µM) | 8 (≈ 5.27 µM) | 4 to 8 | 8 to 16 | – | 16 (≈ 10.5 µM) | 16 (≈ 10.5 µM) | 8 to 16 | 8 (≈ 5.27 µM) | 4 (≈ 2.63 µM) | 8 (≈ 5.27 µM) | –
